Data on seven compounds can be found in ChEMBL document CHEMBL1153147, “Solid-phase synthesis and antibiotic activities of cyclodecapeptides on the scaffold of naturally occurring Laterocidin” (2010).

What all share (type): functional
One test relates to Bacillus subtilis. Put plainly: Antibacterial activity against Bacillus subtilis ATCC 82 after 20 hrs by broth dilution method. To be noted: ATCC 82, 20 h.
Test [1] concerns Staphylococcus aureus. As to the kind of experiment: Antibacterial activity against Staphylococcus aureus ATCC 29213 after 20 hrs by broth dilution method. To be noted: ATCC 29213, 20 h.
The test system of test [2] is Staphylococcus aureus. Put plainly: Antibacterial activity against methicillin-resistant Staphylococcus aureus clinical isolate after 20 hrs by broth dilution method.
For test [3], the system named is Escherichia coli. Put plainly: Antibacterial activity against Escherichia coli ATCC 25922 after 20 hrs by broth dilution method. To be noted: ATCC 25922, 20 h.
The next test relates to Pseudomonas aeruginosa. Put plainly: Antibacterial activity against Pseudomonas aeruginosa ATCC 27853 after 20 hrs by broth dilution method. To be noted: ATCC 27853, 20 h. For orientation: Dilution methods test growth across graded concentrations, often in twofold steps.
The subject of test [4] is Escherichia coli. As to the kind of experiment: Antibacterial activity against extended spectrum beta lactamase-producing Escherichia coli clinical isolate after 20 hrs by broth dilution method.
Test [5] relates to Escherichia coli. Put plainly: Antibacterial activity against drug-resistant Escherichia coli clinical isolate after 20 hrs by broth dilution method.

Values after ≈ are worked out from the molar mass of the structure shown.

As a reminder, the MIC is the lowest concentration found to suppress growth. Low readings indicate a more susceptible organism, high ones a less susceptible organism. On to `CC(C)C[C@@H]1NC(=O)[C@H](CCCN)NC(=O)[C@H](C(C)C)NC(=O)[C@H](CC(C)C)NC(=O)[C@H](CC(N)=O)NC(=O)[C@H](CC(N)=O)NC(=O)[C@@H](Cc2ccccc2)NC(=O)[C@H](Cc2ccc(O)cc2)NC(=O)[C@@H]2CCCN2C(=O)[C@H](Cc2ccccc2)NC1=O`, for which the MIC against Bacillus subtilis was 32 µg/mL (≈ 26.2 µM); in the test with Staphylococcus aureus [1] it was 128 µg/mL (≈ 105 µM); with Staphylococcus aureus [2], 256 µg/mL (≈ 209 µM); against Escherichia coli [3], over 256 µg/mL; in the test with Pseudomonas aeruginosa, over 256 µg/mL; with Escherichia coli [4], over 256 µg/mL.

With `CC(C)C[C@@H]1NC(=O)[C@H](CC(N)=O)NC(=O)[C@H](CC(N)=O)NC(=O)[C@@H](Cc2ccccc2)NC(=O)[C@H](Cc2ccccc2)NC(=O)[C@@H]2CCCN2C(=O)[C@@H](Cc2ccccc2)NC(=O)[C@H](CC(C)C)NC(=O)[C@H](CCCN)NC(=O)[C@H](C(C)C)NC1=O`, the minimal inhibitory concentration (MIC) against Bacillus subtilis is 2 µg/mL (≈ 1.66 µM); in the test with Staphylococcus aureus [1], 2 µg/mL (≈ 1.66 µM); with Staphylococcus aureus [2] it was 4 µg/mL (≈ 3.32 µM); in the test on Escherichia coli [3], over 256 µg/mL; against Pseudomonas aeruginosa, over 256 µg/mL; in the test with Escherichia coli [4], 128 µg/mL (≈ 106 µM). The lowest concentration to inhibit growth in the test on Escherichia coli [5] (MIC) was 128 µg/mL (≈ 106 µM).

As to `CC(C)C[C@@H]1NC(=O)[C@H](CCCN)NC(=O)[C@H](C(C)C)NC(=O)[C@H](CC(C)C)NC(=O)[C@H](CC(N)=O)NC(=O)[C@H](CC(N)=O)NC(=O)[C@H](Cc2ccccc2)NC(=O)[C@H](Cc2ccc(O)cc2)NC(=O)[C@@H]2CCCN2C(=O)[C@H](Cc2ccccc2)NC1=O`, the MIC was 64 µg/mL (≈ 52.4 µM) against Bacillus subtilis; 64 µg/mL (≈ 52.4 µM) in the test with Staphylococcus aureus [1]; 128 µg/mL (≈ 105 µM) with Staphylococcus aureus [2]; over 256 µg/mL with Escherichia coli [3]; over 256 µg/mL with Pseudomonas aeruginosa; over 256 µg/mL in the test on Escherichia coli [4].

Regarding `CC(C)C[C@@H]1NC(=O)[C@H](CC(N)=O)NC(=O)[C@H](CC(N)=O)NC(=O)[C@@H](Cc2ccccc2)NC(=O)[C@H](Cc2ccc(O)cc2)NC(=O)[C@@H]2CCCN2C(=O)[C@@H](Cc2ccccc2)NC(=O)[C@H](CC(C)C)NC(=O)[C@H](CCCN)NC(=O)[C@H](C(C)C)NC1=O`, the MIC against Bacillus subtilis is 0.5 µg/mL (≈ 0.409 µM); against Staphylococcus aureus [1] it was 1 µg/mL (≈ 0.818 µM); with Staphylococcus aureus [2] it was 1 µg/mL (≈ 0.818 µM); in the test on Escherichia coli [3], over 256 µg/mL; with Pseudomonas aeruginosa it was over 256 µg/mL; in the test on Escherichia coli [4], 64 µg/mL (≈ 52.4 µM). The compound further showed an MIC against Escherichia coli [5] of 16 µg/mL (≈ 13.1 µM).

As for `CC(C)C[C@@H]1NC(=O)[C@H](CC(=O)O)NC(=O)[C@H](CC(N)=O)NC(=O)[C@@H](Cc2ccccc2)NC(=O)[C@H](Cc2ccccc2)NC(=O)[C@@H]2CCCN2C(=O)[C@@H](Cc2ccc(O)cc2)NC(=O)[C@H](CC(C)C)NC(=O)[C@H](CCCN)NC(=O)[C@H](C(C)C)NC1=O` [LATEROCIDIN], the minimal inhibitory concentration (MIC) in the test with Bacillus subtilis was 16 µg/mL (≈ 13.1 µM); in the test on Staphylococcus aureus [1], 32 µg/mL (≈ 26.2 µM); with Staphylococcus aureus [2], 128 µg/mL (≈ 105 µM); in the test with Escherichia coli [3], over 256 µg/mL; in the test on Pseudomonas aeruginosa, over 256 µg/mL; with Escherichia coli [4] it was over 256 µg/mL.

Turning to `CC(C)C[C@@H]1NC(=O)[C@H](CC(N)=O)NC(=O)[C@H](CC(N)=O)NC(=O)[C@@H](Cc2ccccc2)NC(=O)[C@H](Cc2ccccc2)NC(=O)[C@@H]2CCCN2C(=O)[C@@H](Cc2ccc(O)cc2)NC(=O)[C@H](CC(C)C)NC(=O)[C@H](CCCN)NC(=O)[C@H](C(C)C)NC1=O`, the MIC with Bacillus subtilis was 1 µg/mL (≈ 0.818 µM); in the test on Staphylococcus aureus [1] it was 2 µg/mL (≈ 1.64 µM); with Staphylococcus aureus [2], 4 µg/mL (≈ 3.27 µM); against Escherichia coli [3] it was 64 µg/mL (≈ 52.4 µM); in the test with Pseudomonas aeruginosa, over 256 µg/mL; against Escherichia coli [4], 256 µg/mL (≈ 209 µM). Also, the MIC in the test with Escherichia coli [5] is 64 µg/mL (≈ 52.4 µM).

Consider `CC(C)C[C@@H]1NC(=O)[C@H](CC(N)=O)NC(=O)[C@H](CC(N)=O)NC(=O)[C@H](Cc2ccccc2)NC(=O)[C@H](Cc2ccc(O)cc2)NC(=O)[C@@H]2CCCN2C(=O)[C@@H](Cc2ccccc2)NC(=O)[C@H](CC(C)C)NC(=O)[C@H](CCCN)NC(=O)[C@H](C(C)C)NC1=O`, for which the MIC against Bacillus subtilis was 32 µg/mL (≈ 26.2 µM); against Staphylococcus aureus [1], 32 µg/mL (≈ 26.2 µM); with Staphylococcus aureus [2], 16 µg/mL (≈ 13.1 µM); against Escherichia coli [3] it was over 256 µg/mL; with Pseudomonas aeruginosa, over 256 µg/mL; against Escherichia coli [4], over 256 µg/mL.
